System: tyrosinase
Assay: In vitro tyrosinase inhibitory activity, colorimeter comparison at 475 nm
Assay type: biochemical
Description: Test in vitro on the effect of glycolic acid and glycyrrhiza dry extract on tyrosinase inhibitory activity has been carried out based on the Methodology of Maruzene Pharmaceuticals. The anti-tyrosinase activity was investigated by colorimeter comparison at 475 nm and calculated as percentage of the inhibitory activities. (Attached are the results).

Question: With `O=C(O)CO` [Glycolic acid] as the molecule, how does the “% Tyrosinase Inhibition Test 1” value (Glycolic acid 0.42 mg/5 ml) read?
Answer: 4.86%

Question: And the “% Tyrosinase Inhibition Test 2” value (Glycolic acid 0.42 mg/5 ml)?
Answer: 9.12%

Question: And the “% Tyrosinase Inhibition Test 1” value (Glycolic acid 0.805 mg/5 ml)?
Answer: 5.64%

Question: What about the “% Tyrosinase Inhibition Test 2” value (Glycolic acid 0.805 mg/5 ml) of the same molecule?
Answer: 16.11%

Question: And the “% Tyrosinase Inhibition Test 1” value (Glycolic acid 1.61 mg/5 ml)?
Answer: 7.60%

Question: What about the “% Tyrosinase Inhibition Test 2” value (Glycolic acid 1.61 mg/5 ml) of the same molecule?
Answer: 21.32%

Question: And the “% Tyrosinase Inhibition Test 1” value (Glycolic acid 7.21 mg/5 ml)?
Answer: 10.74%

Question: And the “% Tyrosinase Inhibition Test 2” value (Glycolic acid 7.21 mg/5 ml)?
Answer: 27.81%

— patent publication US5609875A, “Skin whitening composition” (Fischer Pharmaceuticals Ltd., priority 1994, dated 1997)
